Measurements: patent US4675427A, “Tetraphosphine-coordinated gold(I) complexes” (Smith Kline Beckman Corporation, priority 1985, dated 1987)
Values joined by “and” are separate entries in the source; they are usually repeats but may differ in a detail not shown here. Identical values can stand only once.

Legend:
[1] = disclosed by Struck et al. (1966); cited from earlier work
[2] = system: M5076 reticulum cell sarcoma; experiment: ip implanted M5076 reticulum cell sarcoma tumor model in mice; format: in vivo, mouse
Procedure: Another chemosensitive tumor model is intraperitoneally (ip) implanted M5076 reticulum cell sarocma in mice. In this system B6D2F female mice are inoculated with 0.5 ml of a 10 percent (w:v) brei of M5076 prepared from pooled subcutaneous (sc) tumors excised at about 21 days from C57B1/6 donors. Drugs are administered ip. Daily treatment is begun 24 hours after implantation and is continued for ten days. The treatment regimen for M5076 is more prolonged than for P388 because of the slower growth rate and longer control survival time of the M5076 tumor. A drug is considered active in this tumor model if it produces ≥25% ILS.

[3] = system: P388 lymphocytic leukemia; experiment: in vivo ip P388 leukemia mouse model
Description: P388 lymphocytic leukemia is currently the most widely used animal tumor model for screening for antitumor agents and for detailed evaluation of active compounds. This tumor system is widely accepted as an antitumor agent screening tool because it is sensitive to virtually all of the clinically active antineoplastic agents; quantitative and reproducible; amenable for large-scale screening; and predictive for activity in other animal tumor models.
10^6 P388 leukemia cells are inoculated ip in B6D2F1 mice. Twenty-four hours later, if the tumor inoculum proves to be free of bacterial contamination (as determined by 24 hours incubation in thioglycollate broth), animals are randomized into groups of 6 and housed in shoebox cages. The compound to be evaluated is dissolved in a minimal volume of N,N-dimethylacetamide (DMA). An equal volume of saline is added; if the drug comes out of solution an equal volume of polyethoxylated castor oil is added and then saline qs to a concentration such that the desired dose is delivered in 0.5 ml. The final concentration of DMA and polyethoxylated castor oil is 10 percent. Dilutions for lower doses are made with saline so there is a decreasing proportion of organic solvents in the vehicle with decreasing dosage. This vehicle provides a soluble formulation. […] Animals are monitored daily for mortality and experiments are terminated after 45 days. […]

B16 melanoma = experiment: in vivo ip B16 melanoma assay; design: species or system mouse
Procedure: In this system, groups of eight B6D2F1 mice are inoculated ip with 0.5 ml of a 10% (w:v) brei of […] prepared from pooled sc tumors excised at 14-21 days from […] donor mice. Daily treatment is begun 24 hours after tumor implantation and is continued daily for ten (10) days. The route of drug administration is ip. The mice are monitored daily for survival for sixty (60) days. Antitumor activity is assessed by prolongation of median survival time. An ILS of ≥25% indicates activity in this tumor model.

Structure (SMILES)	cytotoxic activity [1]	MTD (maximally tolerated dose) ([2]; B6D2F female mice, ip qD × 10 regimen)	ILS (MAX), maximum increase in lifespan ([2]; mice bearing ip M5076 reticulum cell sarcoma, ip daily for ten days)	MTD (maximally tolerated dose) ([3]; B62DF female mice, ip qDX5 regimen)	ILS (max), maximum increase in lifespan ([3]; mice bearing ip P388 leukemia, ip Days 1 through 5, figures separated by slashes are from separate experiments)	MTD (maximally tolerated dose) (B16 melanoma; B6D2F1 mice, ip qD × 10 regimen)	ILS, maximum increase in lifespan (B16 melanoma; mice bearing ip B16 melanoma, ip daily for ten days)
c1ccc(P(CCP(c2ccccc2)c2ccccc2)c2ccccc2)cc1 [1,2-bis(diphenylphosphino)ethane]	cytotoxic activity						
[Cl][Au].c1ccc(P(CCP(CCP(c2ccccc2)c2ccccc2)c2ccccc2)CCP(c2ccccc2)c2ccccc2)cc1 (stereo not shown) [Compound 1, Chloro[1,1,4,7,10,10-hexaphenyl-1,4,7,10-tetraphosphodecane-P^1, P^4, P^7, P^10] gold(I)]		2 mg/kg	38%	3 mg/kg	40% and 65%	2 mg/kg	37%
